According to PMC2364081, “Antagonists of retinoic acid receptors (RARs) are potent growth inhibitors of prostate carcinoma cells” (British Journal of Cancer, 2001):

Experiments:
LNCaP ITS+ cells = assay: Plate colony formation (clonal proliferation) assay, serum-free (ITS+)-grown LNCaP; type: cell-based, human
From the text: (§1) Prostate cancer is one of the most common cancers in European and American males and has a high mortality rate (Landis et al, 1998; Rosenthal, 1998). Early disease is managed conservatively in Europe although in selected patients surgery is curative. In advanced disease, androgen ablation can produce symptomatic improvement, but the tumour often re-emerges in an androgen- independent and incurable form. One proposed treatment for androgen-independent prostate carcinoma is differentiation ther- apy, in which agents such as all-trans-retinoic acid (ATRA), 9-cis- retinoic acid and 1, 25-dihydroxyvitamin D3 (D3 ) are used to induce growth arrest, differentiation and sometimes apoptosis of the tumour cells (Liang et al, 1999; de Vos et al, 1997; Skowronski et al, 1994; Hedlund et al, 1997). ATRA and synthetic analogues exert their biological effects by binding to two families of retinoid receptors, […]. These are ligand-dependent transcription factors of the steroid/thyroid hormone nuclear receptor superfamily (Chambon 1994; Boehm et al, 1995). Activated RARs bind to retinoic acid-responsive elements (RAREs) in the promoters of genes and thus regulate gene expression. They also antagonize the activity of the tran- scription factor AP1 and thereby down-regulate the expression of some AP1-activated genes (Nagpal et al, 1995). One approach to unravelling the contributions of RAR sub-types to these actions has been the development of synthetic retinoids with selective activities at individual RARs and RXRs. For example, the diaryl- acetylenic retinoids allow separation of transactivation and AP1 antagonism functions at RAR (Nagpal et al, 1995). Recently, compounds that are selective for particular RAR sub-types have been synthesized: these include both agonists and antagonists (Chandraratna, 1995; Teng et al, 1999; Johnson et al, 1999). The functional selectivity of these compounds may open the way to achieving differentiation or apoptosis of tumour cells with minimal systemic side effects (Chandraratna, 1995). Cell lines that are commonly used in the evaluation of investiga- tional agents for prostate cancer include LNCaP, DU-145 and PC- 3. […] These lines are relatively insensitive to growth inhibition and induction of apoptosis by ATRA and by synthetic agonists. […] Fenretinide (4HPR) induces apoptosis of LNCaP and of PC-3 cells at 1-5 M and 25 µM, respectively (Pienta et al, 1993; Heish and Wu, 1997). Pfahl and colleagues examined the growth inhibitory effects of a panel of receptor-selective retinoids against DU145 and PC-3 cells and achieved complete growth inhibition and induction of apoptosis between 1 M and 10 M (Lu et al, 1999). […] Antagonists of retinoic acid receptors (RARs) are potent growth inhibitors of prostate carcinoma cells LA Hammond1 , CH Van Krinks2 , J Durham2 , SE Tomkins2 , RD Burnett3 , EL Jones1 , RAS Chandraratna3 and G Brown2 Divisions of 1 Cancer Studies and of 2 Immunity and Infection, University of Birmingham Medical School, Edgbaston, Birmingham B15 2TT, UK and 3 Retinoid Research, Allergan Inc., Irvine, California, USA Summary Novel synthetic antagonists of retinoic acid receptors (RARs) have been developed. To avoid interference by serum retinoids when testing these compounds, we established serum-free grown sub-lines (>3 years) of the prostate carcinoma lines LNCaP, PC3 and DU145. […] A component(s) of serum and of LNCaP-conditioned medium diminishes the activity of antagonists: this factor is not the most likely candidates IGF-1 and EGF. In vitro studies of RAR antagonists together with data from RAR-null mice lead to the hypothesis that RAR-regulated gene transcription is necessary for the survival and maintenance of prostate epithelium. […]

PC3 ITS+ cells = assay: Plate colony formation assay, serum-free (ITS+)-grown PC3; type: cell-based, human; conditions: 14 days
From the text: (§2) Prostate cancer is one of the most common cancers in European and American males and has a high mortality rate (Landis et al, 1998; Rosenthal, 1998). Early disease is managed conservatively in Europe although in selected patients surgery is curative. In advanced disease, androgen ablation can produce symptomatic improvement, but the tumour often re-emerges in an androgen- independent and incurable form. One proposed treatment for androgen-independent prostate carcinoma is differentiation ther- apy, in which agents such as all-trans-retinoic acid (ATRA), 9-cis- retinoic acid and 1, 25-dihydroxyvitamin D3 (D3 ) are used to induce growth arrest, differentiation and sometimes apoptosis of the tumour cells (Liang et al, 1999; de Vos et al, 1997; Skowronski et al, 1994; Hedlund et al, 1997). ATRA and synthetic analogues exert their biological effects by binding to two families of retinoid receptors, the RARs (RAR, RAR and RAR) and the RXRs (RXR, RXR and RXR). These are ligand-dependent transcription factors of the steroid/thyroid hormone nuclear receptor superfamily (Chambon 1994; Boehm et al, 1995). Activated RARs bind to retinoic acid-responsive elements (RAREs) in the promoters of genes and thus regulate gene expression. They also antagonize the activity of the tran- scription factor AP1 and thereby down-regulate the expression of some AP1-activated genes (Nagpal et al, 1995). One approach to unravelling the contributions of RAR sub-types to these actions has been the development of synthetic retinoids with selective activities at individual RARs and RXRs. For example, the diaryl- acetylenic retinoids allow separation of transactivation and AP1 antagonism functions at RAR (Nagpal et al, 1995). Recently, compounds that are selective for particular RAR sub-types have been synthesized: these include both agonists and antagonists (Chandraratna, 1995; Teng et al, 1999; Johnson et al, 1999). The functional selectivity of these compounds may open the way to achieving differentiation or apoptosis of tumour cells with minimal systemic side effects (Chandraratna, 1995). […]

DU145 ITS+ cells = assay: Plate colony formation assay, serum-free (ITS+)-grown DU145; type: cell-based, human; conditions: 14 days
From the text: as §2

[1] = system: LNCaP, PC3 and DU145 cells; assay: Plate colony formation assay, stated over the three serum-free grown lines; type: cell-based, human
From the text: as §1

[2] = system: FBS-grown LNCaP, DU145 and PC3 cells; assay: Plate colony formation assay, stated over the three FBS-grown lines; type: cell-based, human; conditions: 100 nM
From the text: as §2, with “1995).” for “1995). One approach to unravelling the contributions of RAR sub-types to these actions has been the development of synthetic retinoids with selective activities at individual RARs and RXRs. For example, the diaryl- acetylenic retinoids allow separation of transactivation and AP1 antagonism functions at RAR (Nagpal et al, 1995). Recently, compounds that are selective for particular RAR sub-types have been synthesized: these include both agonists and antagonists (Chandraratna, 1995; Teng et al, 1999; Johnson et al, 1999). The functional selectivity of these compounds may open the way to achieving differentiation or apoptosis of tumour cells with minimal systemic side effects (Chandraratna, 1995).”

HL60 cells [3] = assay: ATRA-induced differentiation of HL60 cells to neutrophils (nitroblue tetrazolium reduction); type: cell-based, human; conditions: antagonist at 100 nM added with 100 nM ATRA
From the text: as §2, with “1995).” for “1995). One approach to unravelling the contributions of RAR sub-types to these actions has been the development of synthetic retinoids with selective activities at individual RARs and RXRs. For example, the diaryl- acetylenic retinoids allow separation of transactivation and AP1 antagonism functions at RAR (Nagpal et al, 1995). Recently, compounds that are selective for particular RAR sub-types have been synthesized: these include both agonists and antagonists (Chandraratna, 1995; Teng et al, 1999; Johnson et al, 1999). The functional selectivity of these compounds may open the way to achieving differentiation or apoptosis of tumour cells with minimal systemic side effects (Chandraratna, 1995).”

HL60 cells [4] = assay: Clonal growth of single serum-free grown HL60 cells in microtitre wells; type: cell-based, human; conditions: 100 nM
From the text: as §1

RARα [5] = biological target: T1, RARα (Homo sapiens, UniProt P10276); assay: Binding to baculovirus-expressed RARα; set-up: made in house; conditions: baculovirus-expressed receptor
T1 sequence (P10276 1-462): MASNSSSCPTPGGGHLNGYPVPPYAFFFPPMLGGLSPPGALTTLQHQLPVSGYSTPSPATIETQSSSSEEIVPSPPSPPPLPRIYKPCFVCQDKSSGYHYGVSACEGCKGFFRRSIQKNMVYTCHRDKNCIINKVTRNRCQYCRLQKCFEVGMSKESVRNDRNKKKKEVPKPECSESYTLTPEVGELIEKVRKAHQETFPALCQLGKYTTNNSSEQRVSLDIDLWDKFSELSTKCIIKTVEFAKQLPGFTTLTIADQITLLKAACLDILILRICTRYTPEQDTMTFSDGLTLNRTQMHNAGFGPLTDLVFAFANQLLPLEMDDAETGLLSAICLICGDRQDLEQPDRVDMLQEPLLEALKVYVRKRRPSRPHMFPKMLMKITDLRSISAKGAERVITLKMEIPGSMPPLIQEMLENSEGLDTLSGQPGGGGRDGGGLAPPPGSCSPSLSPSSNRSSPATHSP
From the text: as §1

RARβ [6] = biological target: T2, RARβ (Homo sapiens, UniProt P10826); assay: Binding to baculovirus-expressed RARβ; set-up: made in house; conditions: baculovirus-expressed receptor
T2 sequence (P10826 1-455): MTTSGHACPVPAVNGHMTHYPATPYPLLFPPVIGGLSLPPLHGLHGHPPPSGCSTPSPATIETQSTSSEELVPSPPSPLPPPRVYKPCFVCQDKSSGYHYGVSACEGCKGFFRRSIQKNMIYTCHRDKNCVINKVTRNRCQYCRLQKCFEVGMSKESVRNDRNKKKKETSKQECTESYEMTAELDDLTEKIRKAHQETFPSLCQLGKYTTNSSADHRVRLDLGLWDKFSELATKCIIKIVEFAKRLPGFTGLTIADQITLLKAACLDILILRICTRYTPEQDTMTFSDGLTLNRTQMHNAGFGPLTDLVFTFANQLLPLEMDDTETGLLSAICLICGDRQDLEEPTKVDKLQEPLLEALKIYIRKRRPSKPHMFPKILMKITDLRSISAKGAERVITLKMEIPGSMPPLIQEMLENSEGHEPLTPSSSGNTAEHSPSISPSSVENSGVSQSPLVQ
From the text: as §1

RARγ [7] = biological target: T3, RARγ (Homo sapiens, UniProt P13631); assay: Binding to baculovirus-expressed RARγ; set-up: made in house; conditions: baculovirus-expressed receptor
T3 sequence (P13631 1-454): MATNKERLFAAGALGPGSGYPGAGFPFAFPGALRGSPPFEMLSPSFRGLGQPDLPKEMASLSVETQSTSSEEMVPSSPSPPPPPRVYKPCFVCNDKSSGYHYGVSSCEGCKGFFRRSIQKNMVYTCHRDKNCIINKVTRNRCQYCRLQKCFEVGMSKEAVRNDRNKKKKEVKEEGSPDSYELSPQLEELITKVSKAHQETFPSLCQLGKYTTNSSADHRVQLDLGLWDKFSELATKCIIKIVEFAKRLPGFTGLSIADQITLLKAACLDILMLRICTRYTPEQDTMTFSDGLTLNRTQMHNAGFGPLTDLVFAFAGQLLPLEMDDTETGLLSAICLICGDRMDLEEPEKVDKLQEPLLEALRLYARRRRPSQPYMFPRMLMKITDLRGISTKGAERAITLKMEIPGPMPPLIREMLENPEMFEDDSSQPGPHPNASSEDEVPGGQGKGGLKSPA
From the text: as §1

RARα [8] = biological target: T1, RARα; assay: Transactivation by RARα in doubly transfected CV-1 cells (MTV-TREp-LUC reporter); type: cell-based; set-up: expressed in transfected cells; host or cells: CV-1 cells
From the text: as §2

RARβ [9] = biological target: T2, RARβ; assay: Transactivation by RARβ in doubly transfected CV-1 cells (MTV-TREp-LUC reporter); type: cell-based; set-up: expressed in transfected cells; host or cells: CV-1 cells; key to EC50 transactivation RARβ: NA: inactive; WA: weak partial agonist
From the text: as §2

RARγ [10] = biological target: T3, RARγ; assay: Transactivation by RARγ in doubly transfected CV-1 cells (MTV-TREp-LUC reporter); type: cell-based; set-up: expressed in transfected cells; host or cells: CV-1 cells; key to EC50 transactivation RARγ: NA: inactive; WA: weak partial agonist
From the text: as §2, with “1995).” for “1995). One approach to unravelling the contributions of RAR sub-types to these actions has been the development of synthetic retinoids with selective activities at individual RARs and RXRs. For example, the diaryl- acetylenic retinoids allow separation of transactivation and AP1 antagonism functions at RAR (Nagpal et al, 1995). Recently, compounds that are selective for particular RAR sub-types have been synthesized: these include both agonists and antagonists (Chandraratna, 1995; Teng et al, 1999; Johnson et al, 1999). The functional selectivity of these compounds may open the way to achieving differentiation or apoptosis of tumour cells with minimal systemic side effects (Chandraratna, 1995).”

EC50 (RARα [8]) [nM] | EC50 transactivation RARβ (RARβ [9]) | EC50 transactivation RARγ (RARγ [10]) | Compound | reversal of the inhibition of colony formation by 100 nM AGN194310 (LNCaP ITS+ cells; EGF at 1, 10 and 20 ng/ml) | IC50 (LNCaP ITS+ cells; LNCaP, serum-free (ITS+), 14 days) [nM] | IC50 (PC3 ITS+ cells) [nM] | IC50 (DU145 ITS+ cells) [nM] | inhibition of colony formation ([1]; 100 nM, three lines in ITS+ medium) | IC50 ([1]; stated over all three serum-free grown lines, read-out: concentration inhibiting colony formation by 50% (IC50)) [nM] | inhibition of colony formation [2] | percentage of mature cells (HL60 cells [3]) [%] | viability of the single cells (HL60 cells [4]) [%] | effect on clonal growth of HL60 cells (HL60 cells [4]; 4 days) | number of viable cells at day 4 (HL60 cells [4]; control 18) | cloning efficiency (HL60 cells [4]; same as untreated) | Kd (RARα [5]) [nM] | Kd (RARβ [6]) [nM] | Kd (RARγ [7]) [µM]
– | – | – | EGF: Epidermal growth factor (R & D, Abingdon, UK) (NSDSECPLSHDGYCLHDGVCMYIEALDKYACNCVVGYIGERCQYRDLKWWELR; UniProt P01133 971-1023, looked up) | did not reverse | – | – | – | – | – | – | – | – | – | – | – | – | – | –
– | – | – | Cc1ccc(C2=CC(C)(C)Oc3c(Br)cc(C(=O)Nc4ccc(C(=O)O)c(F)c4)cc32)cc1 [AGN194301] | – | 203 | 235 | 201 | 42-74% | ~200 | 0-19% | 1 | > 95 | did not adversely affect | 22 | 90-93% | 3 | 320 | 7.25
130 | WA | WA | CC(C)N1CCC(C)(C)c2cc(C(=O)Nc3ccc(C(=O)O)c(F)c3)c(O)cc21 [AGN195153] | – | – | – | – | – | – | – | – | – | – | – | – | 40 | > 5000 | > 5
